For assay [1], the system named is CHOLINE KINASE (TB427TMP.18.0017). Nature of the assay: Multitargeted bead mixture competition. Type of assay: binding, T. brucei. The settings on record: protein TB427TMP.18.0017 CHOLINE KINASE; vehicle control = 1.
Assay [2] concerns the target T1, HeLa cell extract proteins (Homo sapiens, UniProt P26447).
T1 construct: endogenous in cells; host or cells: HeLa cell extract
Type of assay: binding. The settings on record: protein S100A4; HeLa.

Assay [3] deals with T2, HeLa cell extract proteins (Homo sapiens, UniProt P30050).
T2 construct: endogenous in cells; host or cells: HeLa cell extract
Type of assay: binding. The settings on record: HeLa; captured protein RPL12.

The target of assay [4] is T3, HeLa cell extract proteins (Homo sapiens, UniProt P31947).
T3 construct: endogenous in cells; host or cells: HeLa cell extract
T3 sequence (P31947 1-248): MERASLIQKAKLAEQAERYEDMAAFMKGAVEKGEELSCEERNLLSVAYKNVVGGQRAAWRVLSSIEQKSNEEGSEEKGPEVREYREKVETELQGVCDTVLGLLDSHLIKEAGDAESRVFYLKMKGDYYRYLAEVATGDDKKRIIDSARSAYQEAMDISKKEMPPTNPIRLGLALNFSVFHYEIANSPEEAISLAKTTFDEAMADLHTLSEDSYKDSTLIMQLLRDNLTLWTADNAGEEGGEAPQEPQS
Type of assay: binding. The settings on record: HeLa; protein SFN.

Assay [5] has as its target T4, HeLa cell extract proteins (Homo sapiens, UniProt P38606).
T4 construct: endogenous in cells; host or cells: HeLa cell extract
Format: binding. The settings on record: HeLa; protein ATP6V1A.

In assay [6] the target is T5, HeLa cell extract proteins (Homo sapiens, UniProt P49721).
T5 construct: endogenous in cells; host or cells: HeLa cell extract
Format: binding. The settings on record: HeLa; captured protein PSMB2.

Assay [7] has as its target T6, HeLa cell extract proteins (Homo sapiens, UniProt Q13011).
T6 construct: endogenous in cells; host or cells: HeLa cell extract
T6 sequence (Q13011 34-328): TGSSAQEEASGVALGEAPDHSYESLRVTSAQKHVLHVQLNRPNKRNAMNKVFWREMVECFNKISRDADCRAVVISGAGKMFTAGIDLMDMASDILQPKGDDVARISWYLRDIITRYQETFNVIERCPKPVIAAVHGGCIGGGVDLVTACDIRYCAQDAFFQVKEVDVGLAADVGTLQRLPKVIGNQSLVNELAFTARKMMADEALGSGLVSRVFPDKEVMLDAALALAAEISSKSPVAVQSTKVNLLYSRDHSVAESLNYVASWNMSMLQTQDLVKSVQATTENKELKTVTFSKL
Format: binding. The settings on record: HeLa; protein ECH1.

In assay [8] the target is T7, HeLa cell extract proteins (Homo sapiens, UniProt Q15907).
T7 construct: endogenous in cells; host or cells: HeLa cell extract
T7 sequence (Q15907 1-218): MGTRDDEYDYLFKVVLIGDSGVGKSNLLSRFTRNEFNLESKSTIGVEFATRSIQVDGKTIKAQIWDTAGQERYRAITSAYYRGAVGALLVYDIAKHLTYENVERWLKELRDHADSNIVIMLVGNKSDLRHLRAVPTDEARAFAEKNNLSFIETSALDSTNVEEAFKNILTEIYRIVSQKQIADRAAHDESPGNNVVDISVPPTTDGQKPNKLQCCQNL
Type of assay: binding. The settings on record: HeLa; protein RAB11B.

For assay [9], the target named is T8, HeLa cell extract proteins (Homo sapiens, UniProt Q9NR28).
T8 construct: endogenous in cells; host or cells: HeLa cell extract
T8 sequence (Q9NR28 22-239): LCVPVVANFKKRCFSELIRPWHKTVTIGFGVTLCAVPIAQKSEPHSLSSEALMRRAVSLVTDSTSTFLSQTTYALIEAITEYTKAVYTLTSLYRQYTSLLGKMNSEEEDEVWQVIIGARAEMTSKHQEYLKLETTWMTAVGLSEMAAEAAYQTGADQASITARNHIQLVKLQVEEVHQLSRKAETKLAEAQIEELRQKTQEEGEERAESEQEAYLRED
Format: binding. The settings on record: HeLa.

For assay [10], the target named is T9, HeLa cell extract proteins (Homo sapiens, UniProt Q9NTG7).
T9 construct: endogenous in cells; host or cells: HeLa cell extract
T9 sequence (Q9NTG7 1-399): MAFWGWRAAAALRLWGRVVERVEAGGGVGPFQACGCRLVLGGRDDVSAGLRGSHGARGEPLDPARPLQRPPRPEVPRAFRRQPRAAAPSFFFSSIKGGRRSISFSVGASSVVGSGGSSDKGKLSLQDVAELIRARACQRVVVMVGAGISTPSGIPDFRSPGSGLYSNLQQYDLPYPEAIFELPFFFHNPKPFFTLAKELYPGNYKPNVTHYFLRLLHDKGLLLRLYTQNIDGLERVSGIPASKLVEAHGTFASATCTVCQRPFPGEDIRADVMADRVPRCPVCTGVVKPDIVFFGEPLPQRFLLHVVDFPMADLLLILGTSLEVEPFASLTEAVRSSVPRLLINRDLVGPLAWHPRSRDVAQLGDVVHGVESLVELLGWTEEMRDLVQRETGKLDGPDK
Type of assay: binding. The settings on record: HeLa; captured protein SIRT3.

The target of assay [11] is T10, HeLa cell extract proteins (Homo sapiens, UniProt Q9NU22).
T10 construct: endogenous in cells; host or cells: HeLa cell extract
Type of assay: binding. The settings on record: HeLa; protein MDN1.

Assay [12] deals with T11, HeLa cell extract proteins (Homo sapiens, UniProt Q9UBM7).
T11 construct: endogenous in cells; host or cells: HeLa cell extract
T11 sequence (Q9UBM7 1-475): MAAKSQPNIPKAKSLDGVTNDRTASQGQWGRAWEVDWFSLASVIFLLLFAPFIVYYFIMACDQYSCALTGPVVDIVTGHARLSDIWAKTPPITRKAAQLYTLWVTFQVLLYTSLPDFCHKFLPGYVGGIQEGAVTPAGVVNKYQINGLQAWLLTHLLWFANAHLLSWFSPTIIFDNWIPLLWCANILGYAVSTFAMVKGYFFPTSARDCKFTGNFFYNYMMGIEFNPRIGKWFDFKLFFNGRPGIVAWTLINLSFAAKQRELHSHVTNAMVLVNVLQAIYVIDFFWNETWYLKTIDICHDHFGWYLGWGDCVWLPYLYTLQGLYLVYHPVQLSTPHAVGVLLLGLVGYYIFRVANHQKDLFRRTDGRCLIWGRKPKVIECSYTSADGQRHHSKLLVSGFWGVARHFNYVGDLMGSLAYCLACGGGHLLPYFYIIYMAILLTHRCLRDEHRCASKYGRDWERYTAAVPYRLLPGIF
Type of assay: binding. The settings on record: HeLa; captured protein DHCR7.

The subject of assay [13] is phenylalanine-4-hydroxylase (PAH). Put plainly: Multitargeted bead mixture competition. Format: binding, L. major. The settings on record: protein LMJF.28.1280 PHENYLALANINE-4-HYDROXYLASE,PHENYLALANINE-4-HYDROXYLASE, PUTATIVE
In the next assay the target is T12, DHFR (Homo sapiens, UniProt P00374).
T12 sequence (P00374 1-187): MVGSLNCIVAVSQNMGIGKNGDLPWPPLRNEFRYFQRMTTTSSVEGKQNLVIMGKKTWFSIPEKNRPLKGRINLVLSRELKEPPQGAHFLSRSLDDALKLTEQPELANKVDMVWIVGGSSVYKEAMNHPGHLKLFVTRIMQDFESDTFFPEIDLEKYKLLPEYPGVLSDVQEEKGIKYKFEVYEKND
Nature of the assay: Multitargeted bead mixture competition, HeLa cell extract. Type of assay: binding. The settings on record: HeLa; protein DHFR (SIMILAR TO DIHYDROFOLATE REDUCTASE ISOFORM 2, PARTIAL).

Where two headings read alike, the source gives them in different places.

Consider `NCCOCCOCC(=O)Nc1nc2ncc(CNc3ccc(C(=O)NC(CCC(=O)O)C(=O)O)cc3)nc2c(=O)[nH]1` (stereo not shown) [compound 6], for which the “fold change vs vehicle control” value in assay [1] came out at 1.05; in [13], 0.99. The “fold changes relative to vehicle control” value in assay [2] came out at 1.18; in [3], 1.12; in assay [4], 1.45; in assay [5], 1.04; in assay [6] it was 1.03; in [7], 0.96. The “fold changes relative to vehicle control” value in [8] turned out to be 1.14; in [9] (protein DIABLO (DIABLO HOMOLOG, MITOCHONDRIAL PRECURSOR)) it was 0.99; in assay [10], 0.77; in assay [11] it was 1.12; in assay [12], 0.96; at DHFR, 1.74.

With `NCCCNc1ccc(C(=O)NC(CCC(=O)O)C(=O)O)cc1` (stereo not shown) [compound 7], the “fold change vs vehicle control” value in assay [1] is 1.16; in assay [13], 1.02. For the same compound, the “fold changes relative to vehicle control” value amounted to 1.03 in assay [2]; 0.97 in assay [3]; 0.97 in [4]; 0.93 in [5]; 1.07 in assay [6]; 0.99 in [7]. For the same compound, the “fold changes relative to vehicle control” value in assay [8] was 0.84; in [9] (protein DIABLO (DIABLO HOMOLOG, MIT[…])) it was 1.05; in assay [10], 0.92; in [11], 1; in assay [12] it was 0.98; at DHFR it was 0.98.

The record behind these values is PMC6199744, “Development of Chemical Proteomics for the Folateome and Analysis of the Kinetoplastid Folateome” (ACS Infectious Diseases, 2018).
